Measured values taken from publication PMC4311240, “Rationally Designed Peptidomimetic Modulators of Aβ Toxicity in Alzheimer's Disease” (Scientific Reports, 2015).
Non-standard residues stand in square brackets, D forms with d. Residues, ends and D or L forms follow the SMILES beside them. *: point of attachment. Acetyl(thymin-1-yl) = Cc1cn(CC(=O)*)c(=O)[nH]c1=O; Sar = CNCC(=O)O

How the values were obtained:
Serum stability assay = assay type: in vitro ADME; conditions: 37°C; for half-life at 50 μM: n = 3; for serum half-life compared to P1: human blood serum, 50 μM; for remaining at 24 h, 50 μM: n = 3, read-out: peptide intact after 24 h in serum
Experimental: The impact of N-terminal modification (P2 and P3) and Sr (N-methylglycine) substitution (P4 and P5) in P1 were investigated for their proteolytic stability towards blood plasma proteases. The assay involved the incubation of peptides (50 μM) with blood serum at 37°C for a period of 24 h and assessing the amount of intact peptides at different time points (0, 3, 6, 12 and 24 h) using RP-HPLC. […] Remarkably, P4 and P5 were very stable towards blood plasma proteases in comparison to the other peptides (P1, P2 and P3). […] Proteolytic enzymes generally recognize the specific amide bond between the natural amino acids and cleave them. […] On the other hand, P4 and P5 with an unnatural amino acid (Sr: N-methylglycine) in alternate positions were not recognized by the blood plasma proteases, resulting in their high blood plasma protease stability.
Figure 6 Serum stability of inhibitors. Inhibitors (50 μM) (P1-P5)were incubated in human blood serum (HBS) and were analyzed at different time points over a duration of 24 h to determine the percentage of intact inhibitor. […] Each experiment was repeated three times (n = 3). Error bars represent the standard deviation (SD) of the […] measurement.
Human blood serum (HBS) was used to determine serum stability of the inhibitors. The HBS was centrifuged to remove the lipid component, and the supernatant was incubated at 37°C. 50 Μm of each inhibitor (P1, P2, P3, P4 and P5) was incubated in HBS and then 40 μL triplicate aliquots were removed at 0, 1, 3, 6, 10, 16, and 24 h. Each serum sample was quenched with 40 μL of 6 M urea and incubated at 4°C for 10 min. Then, each serum sample was quenched with 40 μL of trichloroacetic acid (20%) and incubated for another 10 min at 4°C to precipitate the serum proteins. The samples were centrifuged for 10 min, and […] of the supernatant was analyzed on RP-HPLC using a linear gradient of solvent B (0.3 mL/min flow rate). The control samples containing equivalent amounts of inhibitors in PBS buffer were subjected to the same treatment procedure. The percentage recovery of inhibitors was detected by integration at 254 nm[45].

Aβ42 [1] = molecular target: T1, Aβ42 (Homo sapiens, UniProt P05067); assay: ThT fluorescence inhibition assay of Aβ42 fibrillization; assay type: biochemical; conditions: for growth phase of Aβ42 fibrillization, time-dependent ThT assay / inhibition efficiency, time-dependent ThT assay: 1:2, 37°C, n = 3; for growth phase of Aβ42 fibrillization, time-dependent ThT assay: normalized fluorescence at 485 nm
T1 construct: Aβ42 peptide (0.25 mg) (Calbiochem, Merck) was dissolved in hexafluoro-2-propanol; purchased Calbiochem, Merck
Experimental: (§1) ThT assay has been widely used to monitor the transformation of Aβ42 monomers to fibrillar aggregates. We employed ThT assay to evaluate the ability of our peptidomimetic candidates to either prevent fibril assembly (inhibition) or to break down preformed fibrils of Aβ42 (dissolution). For the inhibition assay all the peptidomimetics (P2, P3, P4 and P5) along with control peptide P1 were added at 0 h of the experiment, whereas for the aggregates reversal (dissolution) assay they were added to Aβ42 fibrillar aggregates grown for 2 days. Once they had been incubated together, Aβ42/inhibitors were analyzed using ThT by measuring the fluorescence changes. First, we performed concentration-dependent experiments where different ratios of P1, P2, P3, P4 and P5 were incubated with fixed concentrations of Aβ42 (20 μM) and its aggregates to study their effect on both inhibition and reversal assay, respectively. Experiments were performed at stoichiometric ratios (Aβ42/inhibitor) of 1:0.2, 1:1, and 1:2 with the fixed concentration of Aβ42 of 20 μM. […] However, the efficiencies of P4 and P5 were only marginally better in inhibition assay compared to reversal assay with a difference of about 15%.
(§2) Fluorescence spectral measurements were carried out using Perkin Elmer Model LS 55 fluorescence spectrophotometer. […] A ThT concentration of 5–10 µM was used for amyloid fibrillization and dissolution assay based on the Aβ42 fibrillar concentration.
(§3) Prior to the experiment, P1, P2, P3, P4 and P5 were dissolved in HFIP and were evaporated under a stream of dry nitrogen. The dried samples were re-suspended in 10 mM PBS buffer at pH 7.4. An aliquot of Aβ42 peptide was then added to the solution with or without one of the inhibitor P1, P2, P3, P4 and P5. The mixtures were vortexed for approximately 30 s and then incubated at 37°C for 2–3 days without shaking. The final concentration of Aβ42 in the mixture was 20 μΜ. For a dissolution experiment, Aβ42 was incubated alone for 2 days to allow fibrils to form. An aliquot of the formed fibrils in 10 mM PBS buffer was then added to the inhibitor peptidomimetics. The amount of fibrils remaining intact was assayed using that fluorescence, CD measurements and transmission electron microscopy as described below.

trypsin = assay: Protease stability assay, trypsin; assay type: in vitro ADME; conditions: 100 mM NH4HCO3 buffer pH 8, 50 μM, 37°C; for stability towards trypsin: 24 h, RP-HPLC; for remaining at 24 h, 50 μM: RP-HPLC at 254 nm, triplicates, read-out: peptidomimetic intact after 24 h with trypsin
Experimental: (§4) Enzymes trypsin and pepsin are well-known to cleave the C-terminal of lysine and amide bond involving aromatic amino acids, respectively. Peptides were incubated with both the enzymes at 37°C for 24 h, and the amount of the residual intact peptide was monitored in each case at different time points (0, 3, 6, 12 and 24 h) using RP-HPLC. […] Overall, the stability assays with blood plasma and proteolytic enzymes led to similar conclusions and confirmed the stability, order P5>P4≫P3≈P2>P1.
(§5) Preliminary stability assays were performed using the enzymes pepsin and trypsin. For all assays, peptides were incubated with the enzyme at 37°C for 24 h. All digestion assay data were analyzed by RP-HPLC. Trypsin and pepsin stocks were prepared in 100 mM ammonium bicarbonate (NH4HCO3) buffer (pH 8) and 100 mM formic acid buffer (pH 2), respectively. All the peptides/peptidomimetics (P1, P2, P3, P4 and P5) were incubated with trypsin and pepsin enzymes in 100 mM NH4HCO3 buffer (pH 8) and formic acid buffer (pH 2), respectively, at 37°C. The trypsin reactions were halted with 0.05% formic acid, and the pepsin reactions were halted with 100 mM NH4HCO3. Then the samples were analyzed by RP-HPLC using a linear gradient of solvent B (0.3 mL/min flow rate); similar data points were collected at various time points between 0 and 24 h (1 h, 3 h, 6 h, 12 h and 24 h) during incubation and analyzed in triplicates. The percentages of recovered peptide/peptidomimetics were detected by integration at 254 nm[46].
(§6) Figure S6. Stability towards protease enzymes pepsin and trypsin. P1, P2, P3, P4 and P5 ([…]) were incubated in with enzymes pepsin a and trypsin b in 100 mM formic acid buffer (pH 2) and 100 mM NH4HCO3 buffer (pH 8) respectively. Percentage of intact peptide in each case was monitored at different time points for a duration of 24 h. P1, P2 and P3 degraded with time, […]
(§7) (1 picture or pasted object on this page, not shown here)

pepsin = assay: Protease stability assay, pepsin; assay type: in vitro ADME; conditions: 100 mM formic acid buffer pH 2, 50 μM, 37°C; for stability towards pepsin: 24 h, RP-HPLC; for remaining at 24 h, 50 μM: RP-HPLC at 254 nm, triplicates, read-out: peptidomimetic intact after 24 h with pepsin
Experimental: as §4, §5, §6, §7

[2] = molecular target: T2, Aβ42 fibrillar aggregates (Homo sapiens, UniProt P05067); assay: ThT fluorescence reversal (dissolution) assay of preformed Aβ42 fibrillar aggregates; assay type: biochemical; conditions: n = 3; for dissolution efficiency, fibril reversal assay (ThT): Aβ42 fibrillar aggregates grown for 2 days, 20 μM, 1:2 stoichiometry, day 6, 37°C; for dissolution efficiency, time-dependent reversal ThT assay: Aβ42 aggregates 20 μM, 1:2, 37°C
T2 construct: Aβ42 peptide (0.25 mg) (Calbiochem, Merck) was dissolved in hexafluoro-2-propanol; purchased Calbiochem, Merck
Experimental: as §1
Aβ42 peptide (0.25 mg) (Calbiochem, Merck) was dissolved in hexafluoro-2-propanol (HFIP, 0.2 mL) and incubated at room temperature for 1 h. HFIP was then removed by the flow of nitrogen and further dried under vacuum. HFIP-treated Aβ42 was then dissolved in 10 mM PBS buffer to a concentration of 200 μM at pH 7.4. The solution was incubated at 37°C for 48 h with constant shaking for fibril formation. The formation of Aβ42 fibrillar aggregates was confirmed by ThT fluorescence, CD measurements and electron microscopy. For oligomers, HFIP-treated Aβ42 dissolved in 10 mM PBS buffer and incubated at 4°C for 24 h[44].
as §2, §3

Aβ42 [3] = molecular target: T1, Aβ42; assay: CD measurement, inhibition assay (β-sheet band at 218 nm); assay type: biochemical; conditions: read-out: reduction in CD intensity at 218 nm (β-sheet content), inhibition assay
From the text: (§8) To further validate our results, we performed CD studies. Aβ42 aggregates are predominantly made of β-sheet assembly, which can be assessed by CD measurements. […] In this assay, we monitored the intensity of negative CD band centered at 218 nm, characteristic of a β-sheet structure and a decrease in its intensity was correlated with a reduction in the toxic Aβ42 aggregates (supplementary Fig. S2). In these CD measurements, samples similar to ThT fluorescence assays were used to allow for direct comparison between the two experiments. In the case of inhibition assay, Aβ42 monomers were incubated with inhibitor candidates for 4 days at 37°C and then CD measurements were performed to evaluate the inhibition efficiency. […] In the reversal assay, Aβ42 aggregates were incubated with the inhibitor candidates for six days at 37°C and then, CD measurements were performed. CD data was in excellent agreement with the dissolution efficiency obtained in reversal assay experiments monitored by the ThT assay (Fig. 2). […] Overall, inhibition and dissolution efficiencies obtained in the ThT fluorescence assay and CD measurements were in good agreement.
(§9) The circular dichroic (CD) spectra were recorded using a Jasco J-815 spectrometer under nitrogen atmosphere. Peptides were dissolved in 10 mM PBS buffer at pH 7.4 at concentrations of 20 µM. A 10 mm path length was used for the measurements. Four to five scans were acquired from 200 to 300 nm.
as §3

Aβ42 aggregates = molecular target: T3, Aβ42 aggregates (Homo sapiens, UniProt P05067); assay: CD measurement, reversal assay (β-sheet band at 218 nm); assay type: biochemical; conditions: Aβ42 aggregates 20 μM, inhibitor 40 μM, six days at 37°C
T3 construct: Aβ42 peptide (0.25 mg) (Calbiochem, Merck) was dissolved in hexafluoro-2-propanol; purchased Calbiochem, Merck
From the text: as §8, §9, §3

[4] = human blood serum (centrifuged to remove lipid), 24 h, RP-HPLC at 254 nm
[5] = Aβ42 20 μM, Aβ42:inhibitor 1:2 (40 μM), inhibitor added at 0 h, four days at 37°C, 10 mM PBS pH 7.4, n = 3, read-out: inhibition efficiency (reduction in the fluorescence intensity of ThT)
[6] = Aβ42 20 μM, inhibitor 40 μM, 4 days at 37°C, vs untreated Aβ42

T2 sequence (P05067 672-713 limits assumed): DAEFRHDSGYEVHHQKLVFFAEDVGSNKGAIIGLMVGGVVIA
T1 sequence (P05067 672-713 limits assumed): as above
T3 sequence (P05067 672-713 limits assumed): as above

Compound	half-life at 50 μM (Serum stability assay; [4])	metabolised at 24 h, 50 μM (Serum stability assay; human blood serum (centrifuged to remove lipid), 24 h, RP-HPLC at 254 nm, n = 3, read-out: peptide degraded at 24 h in serum)	inhibition at 40 µM (Aβ42 [1]; [5])	stability towards trypsin (trypsin)	stability towards pepsin (pepsin)	dissolution efficiency, fibril reversal assay (ThT) [2]	serum half-life compared to P1 (Serum stability assay)	inhibition at 40 µM (Aβ42 [3]; [6])	dissolution efficiency by CD, reversal assay (Aβ42 aggregates)	growth phase of Aβ42 fibrillization, time-dependent ThT assay (Aβ42 [1]; Aβ42 20 μM)	dissolution efficiency, time-dependent reversal ThT assay [2]	inhibition at 40 µM (Aβ42 [3])	inhibition at 40 µM (Aβ42 [1]; pH 7.4, read-out: inhibition efficiency (reduction in the fluorescence intensity of ThT))	remaining at 24 h, 50 μM (Serum stability assay; [4])	inhibition efficiency, time-dependent ThT assay (Aβ42 [1]; Aβ42 20 μM)	remaining at 24 h, 50 μM (trypsin)	remaining at 24 h, 50 μM (pepsin)
CC(C)C[C@H](NC(=O)[C@@H](N)CCCCN)C(=O)N[C@H](C(=O)N[C@@H](Cc1ccccc1)C(=O)N[C@@H](Cc1ccccc1)C(N)=O)C(C)C [P1, reference compound]	~3 h	80%	20%	less stable	less stable	20%											
Cc1cn(CC(=O)N[C@@H](CCCCN)C(=O)N[C@@H](CC(C)C)C(=O)N[C@H](C(=O)N[C@@H](Cc2ccccc2)C(=O)N[C@@H](Cc2ccccc2)C(N)=O)C(C)C)c(=O)[nH]c1=O [P2]	~10 h		55%	less stable	less stable	45%	3 times	> 50%	40%	< 60%	35%						
CC(C)C[C@H](NC(=O)[C@H](CCCCN)NC(=O)CC1C(=O)NC(=O)NC1=O)C(=O)N[C@H](C(=O)N[C@@H](Cc1ccccc1)C(=O)N[C@@H](Cc1ccccc1)C(N)=O)C(C)C [P3]	~10 h			less stable	less stable	34%	3 times		25%	< 60%	25%	~30%	40%				
Cc1cn(CC(=O)N(C)CC(=O)N[C@@H](CC(C)C)C(=O)N(C)CC(=O)N[C@@H](Cc2ccccc2)C(=O)N(C)CC(=O)N[C@@H](C)C(N)=O)c(=O)[nH]c1=O [P4] ({Acetyl(thymin-1-yl)}-[Sar]L[Sar]F[Sar]A-NH2)			≤ 95%			80%		> 80%	> 75%		68%			> 90%	> 90%	> 90%	> 90%
Cc1cn(CC(=O)N[C@@H](CCCCN)C(=O)N(C)CC(=O)N[C@H](C(=O)N(C)CC(=O)N[C@@H](Cc2ccccc2)C(=O)N(C)CC(N)=O)C(C)C)c(=O)[nH]c1=O [P5] ({Acetyl(thymin-1-yl)}-K[Sar]V[Sar]F[Sar]-NH2)			≤ 95%			80%		> 80%	> 75%		75%			> 90%	> 90%	> 90%	> 90%
